The source of these data is publication PMC12196213, “New Insights into the Anticancer Effects and Toxicogenomic Safety of Two β-Lapachone Derivatives” (Pharmaceuticals, 2025).

Common to all, as to assay: ADP-Glo kinase assay
Assay type in all cases: biochemical

In one test the target is T1, JAK3 (Homo sapiens, UniProt P52333).
T1 sequence (P52333 1-1124): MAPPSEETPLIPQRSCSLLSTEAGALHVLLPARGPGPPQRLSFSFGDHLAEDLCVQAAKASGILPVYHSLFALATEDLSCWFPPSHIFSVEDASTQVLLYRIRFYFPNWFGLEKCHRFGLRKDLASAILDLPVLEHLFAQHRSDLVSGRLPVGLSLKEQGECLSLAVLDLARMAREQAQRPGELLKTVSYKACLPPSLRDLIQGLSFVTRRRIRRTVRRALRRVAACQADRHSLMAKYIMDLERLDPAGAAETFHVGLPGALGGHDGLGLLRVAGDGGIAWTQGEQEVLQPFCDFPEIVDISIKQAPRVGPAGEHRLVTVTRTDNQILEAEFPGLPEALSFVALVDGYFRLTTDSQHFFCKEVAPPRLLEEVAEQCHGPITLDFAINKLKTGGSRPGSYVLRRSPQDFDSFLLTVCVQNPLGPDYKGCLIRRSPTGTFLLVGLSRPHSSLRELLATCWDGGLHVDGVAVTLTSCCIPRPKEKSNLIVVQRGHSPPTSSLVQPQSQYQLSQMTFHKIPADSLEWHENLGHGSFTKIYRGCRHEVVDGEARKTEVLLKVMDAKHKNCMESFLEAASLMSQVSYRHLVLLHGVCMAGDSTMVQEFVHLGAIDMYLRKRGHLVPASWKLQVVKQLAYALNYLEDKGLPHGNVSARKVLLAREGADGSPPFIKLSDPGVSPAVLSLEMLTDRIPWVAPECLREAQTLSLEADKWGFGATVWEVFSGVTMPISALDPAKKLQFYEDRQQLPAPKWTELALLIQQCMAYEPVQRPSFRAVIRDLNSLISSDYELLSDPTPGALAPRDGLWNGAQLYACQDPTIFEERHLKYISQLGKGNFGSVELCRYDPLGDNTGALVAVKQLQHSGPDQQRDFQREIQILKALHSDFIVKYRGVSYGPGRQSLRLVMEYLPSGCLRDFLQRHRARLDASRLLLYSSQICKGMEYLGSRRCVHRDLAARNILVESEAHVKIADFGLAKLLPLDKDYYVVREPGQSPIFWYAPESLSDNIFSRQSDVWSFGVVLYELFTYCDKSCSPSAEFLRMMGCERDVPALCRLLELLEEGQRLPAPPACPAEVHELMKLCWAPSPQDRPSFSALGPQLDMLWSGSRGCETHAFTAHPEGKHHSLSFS
The settings on record: for remaining activity at 1 µM: JAK3, 1 µM compound; for remaining activity at 1 µM / remaining activity at 10 µM: 10 µM ATP, read-out: % of residual activity; for remaining activity at 10 µM: JAK3, 10 µM compound. Here is the method:
(§1) Kinase enzymatic activities of CDK5/p25, CDK9/CyclinT, HASPIN, PIM1, GSK3β, CK1ε, ABL1, and JAK3 were assayed using the luminescent ADP detection assay described in Zegzouti et al. (ADP-GloTM assay kit provided by Promega, Madison, WI, USA). Briefly, the reactions were carried out in appropriate kinase buffer, with either protein or peptide as substrate in the presence of 10 µM ATP. Assay conditions used for each kinase tested here are described in Ibrahim et al.. The Envision (PerkinElmer, Waltham, MA, USA) microplate luminometer was used to measure the transmitted signal expressed in Relative Light Unit (RLU). In order to determine the half maximal inhibitory concentration (IC50), the assays were performed in duplicate in the absence or presence of increasing doses of the tested compounds. Kinase activities are expressed in % of maximal activity, i.e., measured in the absence of inhibitor but with a similar dose of DMSO (solvent of the tested compounds).

The target in another test is CK1ε (Homo sapiens, UniProt P49674). The settings on record: 10 µM ATP, read-out: % of residual activity; for remaining activity at 1 µM: 1 µM compound; for remaining activity at 10 µM: 10 µM compound. Here is the method:
as §1

For the next test, the target named is PIM1 (Homo sapiens, UniProt P11309). The conditions noted are these: for remaining activity at 1 µM: PIM1, 1 µM compound; for remaining activity at 1 µM / remaining activity at 10 µM: 10 µM ATP, read-out: % of residual activity; for remaining activity at 10 µM: PIM1, 10 µM compound. Here is the method:
as §1

The target in another test is T2, HASPIN (Homo sapiens, UniProt Q8TF76).
T2 sequence (Q8TF76 470-798 limits assumed): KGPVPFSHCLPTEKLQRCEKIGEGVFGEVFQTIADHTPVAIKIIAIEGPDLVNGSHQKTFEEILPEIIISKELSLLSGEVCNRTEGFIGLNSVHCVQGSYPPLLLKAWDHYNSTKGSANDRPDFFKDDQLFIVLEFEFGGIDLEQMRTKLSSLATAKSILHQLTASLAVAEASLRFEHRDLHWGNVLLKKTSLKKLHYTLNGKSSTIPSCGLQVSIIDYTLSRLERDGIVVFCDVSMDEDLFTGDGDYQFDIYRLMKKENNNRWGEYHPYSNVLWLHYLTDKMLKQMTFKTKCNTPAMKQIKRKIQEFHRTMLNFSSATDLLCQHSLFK
The settings on record: 10 µM ATP, read-out: % of residual activity; for remaining activity at 1 µM: 1 µM compound; for remaining activity at 10 µM: 10 µM compound. Here is the method:
as §1

The target in a further test is ABL1 (Homo sapiens, UniProt P00519). The conditions noted are these: 10 µM ATP, read-out: % of residual activity; for remaining activity at 1 µM: ABL1, 1 µM compound; for remaining activity at 10 µM: ABL1, 10 µM compound. Here is the method:
as §1

The target in another test is CDK5/p25 (Homo sapiens, UniProt Q00535). The settings on record: 10 µM ATP, read-out: % of residual activity; for remaining activity at 1 µM: CDK5/p25, 1 µM compound; for remaining activity at 10 µM: CDK5/p25, 10 µM compound. As for the experimental part: as §1
Chain of CDK5/p25 (Q00535 whole entry): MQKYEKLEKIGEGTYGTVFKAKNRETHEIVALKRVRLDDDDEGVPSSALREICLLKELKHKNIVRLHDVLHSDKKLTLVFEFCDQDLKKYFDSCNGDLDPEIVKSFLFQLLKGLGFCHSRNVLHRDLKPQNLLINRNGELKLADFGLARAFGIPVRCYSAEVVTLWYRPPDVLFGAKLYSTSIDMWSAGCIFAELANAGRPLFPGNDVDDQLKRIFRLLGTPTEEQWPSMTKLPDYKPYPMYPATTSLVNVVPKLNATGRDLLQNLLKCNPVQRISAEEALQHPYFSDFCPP
Chain of CDK5/p25 (Q15078 99-307 partner limits assumed): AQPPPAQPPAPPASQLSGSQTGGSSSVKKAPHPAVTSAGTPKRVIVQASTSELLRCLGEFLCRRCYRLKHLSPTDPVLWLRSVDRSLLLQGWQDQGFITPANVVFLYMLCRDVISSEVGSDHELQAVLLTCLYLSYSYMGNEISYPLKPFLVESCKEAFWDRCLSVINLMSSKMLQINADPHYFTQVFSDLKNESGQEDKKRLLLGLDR
The target in the next test is GSK3β (Homo sapiens, UniProt P49841). The conditions noted are these: for remaining activity at 1 µM: 1 µM compound; for remaining activity at 1 µM / remaining activity at 10 µM: read-out: % of residual activity; for remaining activity at 10 µM: 10 µM compound. Here is the method:
as §1

Setting [1] is: JAK3, dose–response curve, Figure 5.
[2] abbreviates: PIM1, dose–response curve, Figure 5.

Chain of CK1ε (P49674 whole entry): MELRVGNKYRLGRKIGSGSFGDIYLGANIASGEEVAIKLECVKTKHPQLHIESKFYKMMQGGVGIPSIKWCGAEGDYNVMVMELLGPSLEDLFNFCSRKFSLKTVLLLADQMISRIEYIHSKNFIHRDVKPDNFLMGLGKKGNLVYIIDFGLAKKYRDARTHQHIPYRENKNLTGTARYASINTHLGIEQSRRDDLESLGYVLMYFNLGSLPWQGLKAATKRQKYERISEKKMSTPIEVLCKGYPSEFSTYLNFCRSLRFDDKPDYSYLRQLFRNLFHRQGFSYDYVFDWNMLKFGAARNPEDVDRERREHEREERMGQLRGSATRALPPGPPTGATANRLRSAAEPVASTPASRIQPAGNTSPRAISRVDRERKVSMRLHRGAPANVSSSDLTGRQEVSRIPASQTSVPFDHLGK
Chain of ABL1 (P00519 whole entry): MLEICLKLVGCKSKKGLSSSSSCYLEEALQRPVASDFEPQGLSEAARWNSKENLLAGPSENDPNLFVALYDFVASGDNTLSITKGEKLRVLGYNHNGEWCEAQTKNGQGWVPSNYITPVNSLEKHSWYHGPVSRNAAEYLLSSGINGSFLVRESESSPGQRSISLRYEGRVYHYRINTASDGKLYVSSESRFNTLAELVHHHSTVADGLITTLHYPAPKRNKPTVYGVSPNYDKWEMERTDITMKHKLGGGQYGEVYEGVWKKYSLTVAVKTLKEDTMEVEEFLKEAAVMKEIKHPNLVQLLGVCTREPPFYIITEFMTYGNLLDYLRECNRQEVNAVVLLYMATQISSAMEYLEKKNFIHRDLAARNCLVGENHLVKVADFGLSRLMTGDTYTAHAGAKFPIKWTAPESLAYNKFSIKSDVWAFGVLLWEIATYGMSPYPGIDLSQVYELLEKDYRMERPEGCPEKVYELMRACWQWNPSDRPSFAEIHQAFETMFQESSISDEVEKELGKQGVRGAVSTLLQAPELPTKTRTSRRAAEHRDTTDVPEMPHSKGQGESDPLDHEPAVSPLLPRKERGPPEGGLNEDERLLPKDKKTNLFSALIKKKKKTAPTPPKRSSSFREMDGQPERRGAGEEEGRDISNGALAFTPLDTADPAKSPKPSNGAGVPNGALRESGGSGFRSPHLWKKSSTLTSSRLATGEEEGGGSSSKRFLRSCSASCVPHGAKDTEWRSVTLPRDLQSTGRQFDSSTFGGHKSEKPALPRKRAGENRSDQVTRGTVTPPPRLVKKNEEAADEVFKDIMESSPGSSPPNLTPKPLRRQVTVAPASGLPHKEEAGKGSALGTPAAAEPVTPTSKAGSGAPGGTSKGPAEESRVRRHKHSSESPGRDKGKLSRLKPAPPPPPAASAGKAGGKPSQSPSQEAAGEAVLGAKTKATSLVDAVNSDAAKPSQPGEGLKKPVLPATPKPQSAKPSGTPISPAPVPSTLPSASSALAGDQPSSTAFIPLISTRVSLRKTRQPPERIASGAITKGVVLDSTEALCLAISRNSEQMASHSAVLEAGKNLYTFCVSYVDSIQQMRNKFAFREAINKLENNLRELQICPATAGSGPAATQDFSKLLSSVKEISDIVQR
Chain of PIM1 (P11309 whole entry): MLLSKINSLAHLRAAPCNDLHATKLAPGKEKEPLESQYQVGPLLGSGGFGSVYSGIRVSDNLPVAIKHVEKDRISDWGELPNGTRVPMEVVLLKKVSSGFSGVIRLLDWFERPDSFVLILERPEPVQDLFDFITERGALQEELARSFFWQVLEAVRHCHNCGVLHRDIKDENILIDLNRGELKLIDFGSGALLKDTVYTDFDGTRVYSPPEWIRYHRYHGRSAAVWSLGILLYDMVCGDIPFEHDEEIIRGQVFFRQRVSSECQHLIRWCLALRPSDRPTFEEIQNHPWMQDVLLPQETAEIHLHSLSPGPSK
Chain of GSK3β (P49841 whole entry): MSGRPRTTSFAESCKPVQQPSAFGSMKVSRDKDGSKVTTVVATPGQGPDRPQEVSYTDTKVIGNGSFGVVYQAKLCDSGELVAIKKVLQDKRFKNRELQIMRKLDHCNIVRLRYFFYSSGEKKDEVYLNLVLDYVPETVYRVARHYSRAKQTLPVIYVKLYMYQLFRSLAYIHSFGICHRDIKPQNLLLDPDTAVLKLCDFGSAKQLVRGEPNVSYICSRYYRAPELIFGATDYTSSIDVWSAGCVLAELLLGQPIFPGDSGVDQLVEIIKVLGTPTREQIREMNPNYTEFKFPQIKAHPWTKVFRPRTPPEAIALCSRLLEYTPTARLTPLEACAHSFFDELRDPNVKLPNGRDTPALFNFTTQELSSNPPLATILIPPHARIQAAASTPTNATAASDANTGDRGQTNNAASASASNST

With `CC1(C)CCC2=C(O1)c1ccccc1/C(=N/NC(=S)Nc1ccc([N+](=O)[O-])cc1)C2=O` [BV3, 2-(2,2-dimethyl-5-oxo-3,4-dihydro-2H-benzo[h]chromen-6(5H)-ylidene)-N-(4nitrophen-yl)thio-carbohydrazide], the remaining activity at 1 µM is -3% on JAK3; no less than 100% on CK1ε; no less than 100% on PIM1; no less than 100% at HASPIN; 52% at ABL1; no less than 100% on CDK5/p25. Besides, the remaining activity at 1 µM at GSK3β (10 µM ATP) was determined as 58%. For the same compound, the remaining activity at 10 µM at JAK3 was -9%; at CK1ε it was 98%; at PIM1 it was 18%; on HASPIN it was no less than 100%; at ABL1 it was 35%; at CDK5/p25, 44%. Further, at GSK3β (10 µM ATP), the remaining activity at 10 µM was 7%. The half-maximal inhibitory concentration (IC50) at JAK3 (setting [1]) came out at 0.115 µM; against PIM1 (PIM1, 10 µM ATP) it was 4.15 µM; against PIM1 (setting [2]) it was 4.16 µM; against GSK3β (10 µM ATP), 1 µM; on GSK3β (dose–response curve, Figure 5) it was 1 µM.
For the compound `Cc1ccc(NC(=S)N/N=C2\C(=O)C3=C(OC(C)(C)CC3)c3ccccc32)cc1` [BV5, 2-(2,2-dimethyl-5-oxo-3,4-dihydro-2H-benzo[h]chromen-6(5H)-ylidene)-N-(p-tolyl)-thiocarbohydrazide], the remaining activity at 1 µM is 64% at JAK3; 98% on CK1ε; 94% at PIM1; no less than 100% on HASPIN; 83% at ABL1; no less than 100% on CDK5/p25. Also, on GSK3β (10 µM ATP), the remaining activity at 1 µM amounted to 64%. Also, the IC50 against JAK3 (JAK3, 10 µM ATP) is 0.52 µM; at JAK3 (setting [1]), 0.522 µM; at PIM1 (PIM1, 10 µM ATP) it was 8.74 µM; on PIM1 (setting [2]), 8.74 µM; at GSK3β (10 µM ATP), 4.91 µM. The remaining activity at 10 µM at JAK3 was 4%; on CK1ε, 86%; on PIM1, 42%; on HASPIN it was no less than 100%; on ABL1, 56%; at CDK5/p25, 62%. Moreover, the remaining activity at 10 µM on GSK3β (10 µM ATP) was 24%.
For the compound `CC1(C)CCC2=C(O1)c1ccccc1C(=O)C2=O` [β-lap, β-Lapachone], the remaining activity at 1 µM was 65% on JAK3; no less than 100% at CK1ε; 56% at PIM1; no less than 100% on HASPIN; 83% on ABL1; 74% on CDK5/p25. For the same compound, the remaining activity at 1 µM at GSK3β (10 µM ATP) worked out at 67%. Besides, the remaining activity at 10 µM at JAK3 turned out to be 69%; on CK1ε it was 94%; at PIM1 it was 42%; on HASPIN it was 91%; on ABL1, 81%; on CDK5/p25, 88%. Besides, at GSK3β (10 µM ATP), the remaining activity at 10 µM was determined as 43%.

Usually IC50 stands for the point on the concentration scale where inhibition reaches its midpoint. Higher therefore signals weaker potency in that assay.
